In one experiment the target is 5-HT2A receptor (Homo sapiens, UniProt P28223). Kind of experiment: Radioligand receptor binding, 5-HT2A (agonist binding). Conditions: radioligand racemic DOI. As for the experimental part: (§1) Receptor binding is determined for the Compounds of Example 1. The following literature procedures are used, each of which reference is incorporated herein by reference in their entireties: 5-HT2A: Bryant, H. U. et al. (1996), Life Sci., 15:1259-1268; D2: Hall, D. A. and Strange, P. G. (1997), Brit. J. Pharmacol., 121:731-736; D1: Zhou, Q. Y. et al. (1990), Nature, 347:76-80; SERT: Park, Y. M. et al. (1999), Anal. Biochem., 269:94-104; Mu opiate receptor: Wang, J. B. et al. (1994), FEBS Lett., 338:217-222.
(§2) The compound of Example 1 is tested at a concentration of […] in DMSO solution. Compound binding is calculated as the percent inhibition of the binding of a radioactively labeled ligand specific for each target. The control ligands are radiolabeled forms of SCH 23390 (for D1), 7-hydroxy-DPAT (for D2S), racemic DOI (for 5-HT2A and 5-HT2B), veratridine (for sodium channel site 2), protriptyline (for NET) and imipramine (for SERT).
(§3) In general, the results are expressed as a percent of control specific binding:
(§4) [formula] and as a percent inhibition of control specific binding:
(§5) [formula] obtained in the presence of the test compound (compound of Example 1).
(§6) Further pharmacology studies are conducted to determine IC50 values for receptor binding to the 5-HT2A receptor, D1 receptor, and SERT. For each study, the compound of Example 1 is tested at a range of concentrations and compound binding at each concentration is calculated as the percent inhibition of the binding of a radioactively labeled ligand specific for the target. The control ligands are radiolabeled forms of […], racemic DOI (for 5-HT2A), and imipramine (for SERT). The IC50 value is determined by non-linear regression analysis of the competition curve generated with mean replicate values using Hill Equation curve fitting:
(§7) [formula] wherein Y is specific binding, A is the left asymptote of the curve, D is the right asymptote of the curve, C is the compound concentration, and nH is the slope factor. Ki values are calculated using the Cheng Prusoff equation: […]

A further experiment addresses NET (Homo sapiens, UniProt P23975). Kind of experiment: Radioligand binding, NET (antagonist binding). Also on record: dose or concentration left out as unconfirmed. Conditions: tested in DMSO solution; radioligand protriptyline. Here is the method: as §2, §3, §4, §5
The target of the next experiment is 5-HT2B (Homo sapiens, UniProt P41595). Kind of experiment: Radioligand receptor binding, 5-HT2B (agonist binding). Further details: dose or concentration left out as unconfirmed. Conditions: in DMSO solution; radioligand racemic DOI. Here is the method: as §1, §2, §3, §4, §5
A further experiment has as its target SERT (Homo sapiens, UniProt P31645). Kind of experiment: Radioligand receptor binding, SERT (antagonist binding). Conditions: radioligand imipramine. As for the experimental part:
as §1, §2, §3, §4, §5, §6, §7

The target in another experiment is D2S (Homo sapiens, UniProt P14416). Kind of experiment: Radioligand receptor binding, D2S (agonist binding). Conditions: radioligand 7-hydroxy-DPAT. As for the experimental part: as §1, §2, §3, §4, §5, §6, §7
Another experiment deals with D1 (Homo sapiens, UniProt P21728). Kind of experiment: Radioligand receptor binding, D1 (antagonist binding). Further details: dose or concentration left out as unconfirmed. Conditions: in DMSO solution; radioligand SCH 23390. As for the experimental part:
as §1, §2, §3, §4, §5

The test system of another experiment is Sodium channel (site 2). Kind of experiment: Radioligand binding, sodium channel site 2 (antagonist binding). Conditions: tested at 1.01.1M in DMSO solution; radioligand veratridine. Here is the method:
as §2, §3, §4, §5

Experiment [1] deals with symptoms of emotional experience (negative symptoms of schizophrenia). Kind of experiment: Clinical studies in patients with acute exacerbated schizophrenia. The experiment is classed as in vivo, human. Conditions: once daily 60 mg P.O., up to 28 days, two clinical studies. The text has this:
Social avoidance can be a critical and debilitating symptom in patients suffering from anxiety disorders, especially social anxiety disorder, as well as in patients suffering from traumatic anxiety disorders. Social avoidance is often one of the key determinants of whether a person with a severe anxiety disorder is capable of maintaining familial relationships or employment relationships. […] Negative symptoms of schizophrenia can be divided into two categories: emotional experience (e.g., emotional withdrawal, passive social withdrawal, active social avoidance) and emotional expression (e.g., blunted effect, poor rapport, lack of spontaneity, and motor retardation). […] These are the symptoms that are most highly correlated with interpersonal functioning.

Where [2] appears, read: tested at 1.01.1M in DMSO solution.

For orientation: Ki means a measure of affinity in units of concentration, obtained from inhibition or displacement. As a reminder, the IC50 is the point on the concentration scale where inhibition reaches its midpoint.

Sequence of 5-HT2A receptor (P28223 whole entry): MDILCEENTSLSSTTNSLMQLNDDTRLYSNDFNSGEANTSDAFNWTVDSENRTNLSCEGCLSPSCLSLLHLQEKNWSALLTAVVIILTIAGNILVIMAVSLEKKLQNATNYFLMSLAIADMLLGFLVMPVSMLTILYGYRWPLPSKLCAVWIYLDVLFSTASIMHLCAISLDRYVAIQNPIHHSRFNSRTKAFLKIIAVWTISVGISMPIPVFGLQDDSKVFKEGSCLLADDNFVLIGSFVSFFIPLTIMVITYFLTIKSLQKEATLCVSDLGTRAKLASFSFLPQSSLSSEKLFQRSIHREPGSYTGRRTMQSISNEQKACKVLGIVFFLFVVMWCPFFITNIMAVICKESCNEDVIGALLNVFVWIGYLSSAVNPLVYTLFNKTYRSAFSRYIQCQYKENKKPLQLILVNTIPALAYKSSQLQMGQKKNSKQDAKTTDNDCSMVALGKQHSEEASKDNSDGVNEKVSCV
Sequence of SERT (P31645 whole entry): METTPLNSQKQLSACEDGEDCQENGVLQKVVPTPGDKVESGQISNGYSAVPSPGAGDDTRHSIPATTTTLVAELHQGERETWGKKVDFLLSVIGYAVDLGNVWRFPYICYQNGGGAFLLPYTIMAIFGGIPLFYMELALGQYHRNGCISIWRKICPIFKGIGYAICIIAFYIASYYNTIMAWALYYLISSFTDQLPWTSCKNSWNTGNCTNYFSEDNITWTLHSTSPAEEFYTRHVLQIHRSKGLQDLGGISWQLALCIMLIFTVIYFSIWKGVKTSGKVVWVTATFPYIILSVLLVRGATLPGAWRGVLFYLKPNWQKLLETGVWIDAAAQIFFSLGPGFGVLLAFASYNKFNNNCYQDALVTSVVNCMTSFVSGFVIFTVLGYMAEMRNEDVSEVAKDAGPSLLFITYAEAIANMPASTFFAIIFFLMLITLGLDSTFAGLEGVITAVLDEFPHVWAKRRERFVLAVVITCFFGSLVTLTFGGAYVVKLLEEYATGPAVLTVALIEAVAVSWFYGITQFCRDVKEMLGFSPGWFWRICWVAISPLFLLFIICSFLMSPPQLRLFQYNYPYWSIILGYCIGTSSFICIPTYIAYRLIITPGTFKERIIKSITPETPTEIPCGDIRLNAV
Sequence of D2S (P14416 1-414 isoform P14416-2): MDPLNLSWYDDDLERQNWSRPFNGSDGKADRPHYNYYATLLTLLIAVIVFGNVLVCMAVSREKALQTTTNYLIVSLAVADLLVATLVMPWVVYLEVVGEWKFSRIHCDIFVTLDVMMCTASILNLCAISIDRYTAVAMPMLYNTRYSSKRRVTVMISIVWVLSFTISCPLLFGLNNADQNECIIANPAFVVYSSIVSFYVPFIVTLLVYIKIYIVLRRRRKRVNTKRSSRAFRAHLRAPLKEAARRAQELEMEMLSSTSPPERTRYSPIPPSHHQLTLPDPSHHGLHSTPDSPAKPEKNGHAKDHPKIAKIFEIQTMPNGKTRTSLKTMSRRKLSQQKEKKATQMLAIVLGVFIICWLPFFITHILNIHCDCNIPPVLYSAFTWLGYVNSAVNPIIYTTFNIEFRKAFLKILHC
Sequence of D1 (P21728 whole entry): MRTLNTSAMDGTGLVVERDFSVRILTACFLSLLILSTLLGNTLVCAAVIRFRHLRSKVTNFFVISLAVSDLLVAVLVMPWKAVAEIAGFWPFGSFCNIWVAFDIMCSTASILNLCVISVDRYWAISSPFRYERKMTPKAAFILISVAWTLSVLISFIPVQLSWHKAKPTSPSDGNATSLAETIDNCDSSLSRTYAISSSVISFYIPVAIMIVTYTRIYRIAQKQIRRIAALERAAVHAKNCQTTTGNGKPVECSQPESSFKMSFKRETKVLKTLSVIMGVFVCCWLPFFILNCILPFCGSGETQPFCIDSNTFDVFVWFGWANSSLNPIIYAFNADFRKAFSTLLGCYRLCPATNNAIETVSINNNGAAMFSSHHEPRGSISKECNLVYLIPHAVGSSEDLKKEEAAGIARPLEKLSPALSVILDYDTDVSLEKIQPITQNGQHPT
Sequence of NET (P23975 whole entry): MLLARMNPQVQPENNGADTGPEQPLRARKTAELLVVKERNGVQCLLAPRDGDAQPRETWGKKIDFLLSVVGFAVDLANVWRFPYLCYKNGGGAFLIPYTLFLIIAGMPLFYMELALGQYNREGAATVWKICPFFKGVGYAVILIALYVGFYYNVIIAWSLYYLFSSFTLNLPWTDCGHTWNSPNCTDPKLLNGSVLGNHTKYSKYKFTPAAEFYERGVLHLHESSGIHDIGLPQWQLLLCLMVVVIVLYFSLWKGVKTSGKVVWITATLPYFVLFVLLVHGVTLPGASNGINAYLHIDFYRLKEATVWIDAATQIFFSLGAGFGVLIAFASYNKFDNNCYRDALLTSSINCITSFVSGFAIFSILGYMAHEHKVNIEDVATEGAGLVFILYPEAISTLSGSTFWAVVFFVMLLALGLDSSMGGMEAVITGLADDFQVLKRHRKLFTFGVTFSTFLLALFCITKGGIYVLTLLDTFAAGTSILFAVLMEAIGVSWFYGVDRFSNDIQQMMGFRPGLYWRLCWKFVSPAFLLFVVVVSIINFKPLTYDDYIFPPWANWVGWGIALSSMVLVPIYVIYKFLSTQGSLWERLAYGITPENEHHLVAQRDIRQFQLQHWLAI
Sequence of 5-HT2B (P41595 whole entry): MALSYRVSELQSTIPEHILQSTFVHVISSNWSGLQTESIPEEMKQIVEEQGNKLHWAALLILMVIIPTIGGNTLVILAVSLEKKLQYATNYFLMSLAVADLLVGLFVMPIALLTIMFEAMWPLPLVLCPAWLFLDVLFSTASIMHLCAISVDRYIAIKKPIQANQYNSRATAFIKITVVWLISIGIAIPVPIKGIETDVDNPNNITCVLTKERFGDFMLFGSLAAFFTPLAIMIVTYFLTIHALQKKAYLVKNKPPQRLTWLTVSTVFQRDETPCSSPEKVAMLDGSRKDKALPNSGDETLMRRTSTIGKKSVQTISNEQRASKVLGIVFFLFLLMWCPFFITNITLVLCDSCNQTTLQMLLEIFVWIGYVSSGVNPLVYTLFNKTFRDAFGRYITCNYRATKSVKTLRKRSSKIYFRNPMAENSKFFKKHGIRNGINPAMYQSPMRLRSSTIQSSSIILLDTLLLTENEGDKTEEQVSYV

On to `CN1CCN2c3c(cccc31)[C@@H]1CN(CCCC(=O)c3ccc(N4CC[C@H]5[C@@H](C4)c4cccc6c4N5CCN6C)cc3)CC[C@@H]12` [Compound 1, 4-((6bR,10aS)-3-methyl-2,3,6b,9,10,10a-hexahydro-1H-pyrido[3′,4′: 4,5]pyrrolo[1,2,3-de]quinoxalin-8(7H)-yl)-1(4-((6bR,10aS)-3-methyl-2,3,6b,9,10,10a-hexahydro-1H-pyrido[3′,4′: 4,5]pyrrolo[1,2,3-de]quinoxalin-8(7H)-yl)phenyl)butan-1-one], for which the inhibitory constant (Ki) at 5-HT2A receptor (Cheng Prusoff equation) turned out to be 51 nM; on SERT (Cheng Prusoff equation), 1.3 nM; at D2S (Cheng Prusoff equation), 72 nM. Besides, the values for the concentration for half-maximal inhibition (IC50) at 5-HT2A receptor (Hill equation curve fitting), on SERT (Hill equation curve fitting) and at D2S (Hill equation curve fitting) were 68 nM, 2.9 nM and 180 nM, respectively. The “% inhibition of control specific binding, 5-HT2A (agonist binding)” value on 5-HT2A receptor (setting [2]) was found to be 90.8%. The “% inhibition of control specific binding, NET (antagonist binding)” value on NET was 82.9%. Further, the “% inhibition of control specific binding, 5-HT2B (agonist binding)” value on 5-HT2B amounted to 87.0%. For the same molecule, the “% inhibition of control specific binding, SERT (antagonist binding)” value at SERT (setting [2]) is 99.9%. Moreover, the “% inhibition of control specific binding, D2S (agonist binding)” value at D2S (setting [2]) was found to be 80.63%. In addition, the “% inhibition of control specific binding, D1 (antagonist binding)” value on D1 came to 52.3%. In the experiment with Sodium channel (site 2), the “% inhibition of control specific binding, Sodium channel (site 2 antagonist binding)” value was 87.0%.

As for `CN1CCN2c3c(cccc31)[C@@H]1CN(CCCC(=O)c3ccc(F)cc3)CC[C@@H]12` [lumateperone, 4-((6bR,10aS)-3-methyl-2,3,6b,9,10,10a-hexahydro-1H-pyrido[3′,4′: 4,5]pyrrolo[1,2,3-de]quinoxalin-8(7H)-yl)-1-(4-fluorophenyl)-1-butanone], the “symptoms of emotional experience compared to placebo” value in experiment [1] is “significant and unexpected improvement”.

The values above are taken from patent US12410195B2, “Pharmaceutical compositions comprising 4-((6bR,10aS)-3-methyl-2,3,6b,9,10,10a-hexahydro-1H-pyrido[3′,4′:4,5]pyrrolo[1,2,3-de]quinoxalin-8(7H)-yl)-1-(4-((6bR,10aS)-3-methyl-2,3,6b,9,10,10a-hexahydro-1H-pyrido[3′,4′:4,5]pyrrolo[1,2,3-de]quinoxalin-8(7H)-yl)phenyl)butan-1-one for treating conditions …” (INTRA-CELLULAR THERAPIES, INC., priority 2019, dated 2025).
